From US20020123525A1, “Cardioprotective composition and uses thereof” (GESTILAB INC., priority 1999, published 2002)

How the values were obtained:
[1] = test system: isolated rat heart; experiment: Cardioprotection and reperfusion-induced arrhythmias in regional ischemia-reperfusion of isolated rat heart; conditions: Heart (ex vivo)
Procedure: (§1) All experiments were conformed to rules of the Guide for the care and use of laboratory animals published by the U.S. National Institutes of Health (NIH publication No 85-23, revised 1985). Adult male Wistar rats (225-250 g) were anaesthetized with sodium pentobarbitone (0.1 ml/100 g body weight) and then heparinised (500 Ul intra-peritoneally). Hearts were rapidly excised, placed in ice-cold oxygenated KH buffer solution, cleaned and then mounted on a modified Langendorff heart perfusion apparatus.
Hearts were cannulated via the aorta and retrogradely perfused at a constant perfusion pressure (90 mm Hg at 37° C.) with modified KH buffer. […]
(§2) A saline-filled latex balloon was inserted into the left ventricle by way of the AV valve and connected via a polyethylene cannula to a pressure transducer for determination of Left Ventricular Pressure (LVP) and Left Ventricular End Diastolic Pressure (LVEDP). […] The LVP, LVEDP, and ECG were recorded on a Nihon-Kohden polygraph (RM 600); heart rate (HR) was calculated from the electrogram. Coronary flow (CF) was measured by time collection of coronary effluent at various times during the experiment.
Hearts were perfused for a 20 min control period with KH buffer, for stabilization. […] Left ventricular pressure and epicardial ECG were continuously monitored before and during ischemia and reperfusion. […]

[2] = test system: isolated rat heart; experiment: Cardioprotection in electrolysis-induced ROS on isolated rat heart; conditions: Heart (ex vivo)
Procedure: as §1
Hearts were cannulated via the aorta and retrogradely perfused at a constant perfusion pressure (90 mm Hg at 37° C.) with modified KH buffer. This solution was continuously gassed with a mixture of 95% O2 and 5% CO2 to maintain a pH of 7.4 at 37° C. […]
as §2, with “experiment. […]” for “experiment.”
The cardiodynamic variables were monitored during all the experimental period.

[3] = In vitro antioxidant capacity, inhibition of DPD oxidation by electrolyzed KH buffer
Text: Oxidation rate of N,N-diethyl-p-phenylenediamine (DPD) by a prooxidant system was used as a general reporter of the amount of ROS generated by that system (Anonymous, 1985; Chahine et al., 1991). Antioxidant capacity of preparations of TRIAD (or of its components) was defined as the extent (%) to which they inhibited the oxidation of DPD by prooxidants. To estimate the antioxidant capacity of TRIAD preparations in the conditions encountered during perfusion of hearts with electrolyzed buffer, 0.6 ml of modified KH not containing (control situation corresponding to 0% inhibition) or containing various concentrations of TRIAD, TRIAD (S2) or their components was subjected to 1-min electrolysis at 10 mA and then mixed with 0.3 ml of the non-electrolyzed counterpart of the solution to which 95 mM DPD was added. Determination of the amount of oxidized DPD was immediately done by reading absorbencies a 515 nm.

With `CC(=O)C(=O)[O-].[Na+]` [Pyruvate, sodium pyruvate] the “Effect of fatty acids and vitamin E on action of pyruvate, the component that mostly contributed to antioxidant action” value (“Effect of fatty acids and vitamin E” below) [1] was “(Pyruvate, ↓)”, the “Effect of fatty acids and vitamin E” value [2] was “(Pyruvate, ↑)” and the “Effect of fatty acids and vitamin E” value ([3]; DPD (in vitro), electrolysis) was “(Pyruvate, ↑)”. For the same compound, the “Antioxidant capacity (ROS scavenging) in vitro, comparison” value ([3]; electrolysis pro-oxidant system, DPD method, same concentrations) was “only a slightly lower ROS scavenging capacity”.
